Experimental data reported in PubChem BioAssay AID2060891 (Molecular Pharmacology Branch, DTP, NCI, 2025).

Test system: K98450-129-R-PDC complex spheroid growth, percent test/control
Assay: Anticancer human tumor K98450-129-R-PDC patient-derived colon adenocarcinoma cell line growth inhibition [RAS]
Details: for IC50: curve of first compound; for viability, T/C: stronger effect = lower value
Method in brief: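 Agents were tested in combination matrices in half-log decrements from a top concentration at or near clinical Cmax (10 microM if undetermined). Targets were multi-cell spheroids of tumour lines plus HUVEC and MSC stromal cells.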

[1] = second compound 0.000949 µM, first compound 0.00316 µM
[2] = second compound 0.000949 µM, first compound 0.01 µM
[3] = second compound 0.000949 µM, first compound 0.0316 µM
[4] = second compound 0.000949 µM, first compound 0.1 µM
[5] = second compound 0.000949 µM, first compound 0.316 µM
[6] = second compound 0.000949 µM, first compound 1 µM
[7] = second compound 0.003 µM, first compound 0.00316 µM
[8] = second compound 0.003 µM, first compound 0.01 µM
[9] = second compound 0.003 µM, first compound 0.0316 µM
[10] = second compound 0.003 µM, first compound 0.1 µM
[11] = second compound 0.003 µM, first compound 0.316 µM
[12] = second compound 0.003 µM, first compound 1 µM
[13] = second compound 0.00949 µM, first compound 0.00316 µM
[14] = second compound 0.00949 µM, first compound 0.01 µM
[15] = second compound 0.00949 µM, first compound 0.0316 µM
[16] = second compound 0.00949 µM, first compound 0.1 µM
[17] = second compound 0.00949 µM, first compound 0.316 µM
[18] = second compound 0.00949 µM, first compound 1 µM
[19] = second compound 0.03 µM, first compound 0.00316 µM
[20] = second compound 0.03 µM, first compound 0.01 µM
[21] = second compound 0.03 µM, first compound 0.0316 µM
[22] = second compound 0.03 µM, first compound 0.1 µM
[23] = second compound 0.03 µM, first compound 0.316 µM
[24] = second compound 0.03 µM, first compound 1 µM
[25] = second compound 0.0949 µM, first compound 0.00316 µM
[26] = second compound 0.0949 µM, first compound 0.01 µM
[27] = second compound 0.0949 µM, first compound 0.0316 µM
[28] = second compound 0.0949 µM, first compound 0.1 µM
[29] = second compound 0.0949 µM, first compound 0.316 µM
[30] = second compound 0.0949 µM, first compound 1 µM
[31] = second compound 0.3 µM, first compound 0.00316 µM
[32] = second compound 0.3 µM, first compound 0.01 µM
[33] = second compound 0.3 µM, first compound 0.0316 µM
[34] = second compound 0.3 µM, first compound 0.1 µM
[35] = second compound 0.3 µM, first compound 0.316 µM
[36] = second compound 0.3 µM, first compound 1 µM
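Also: spheroids exposed to agents for seven days before the viability readout.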
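For viability, T/C in this document: luminescence used as a proxy for viable cell amount.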

`C=CC(=O)Nc1cc(Nc2nccc(-c3cn(C)c4ccccc34)n2)c(OC)cc1N(C)CCN(C)C` + CCn1c(-c2cccnc2C(C)OC)c2c3cc(ccc31)N1CCOC(CC(NC(=O)C(C(C)C)N(C)C(=O)C3(F)CCN(C(=O)C#CC(C)(C)N(C)C)CC3)C(=O)N3CCCC(N3)C(=O)OCC(C)(C)C2)C1 was tested, and the IC50 (second compound 0.000949 µM) was 85 nM, the IC50 (second compound 0.003 µM) was 21.5 nM and the IC50 (second compound 0.00949 µM) was < 3.16 nM. For the same molecule, the IC50 (second compound 0.03 µM) was < 3.16 nM, the IC50 (second compound 0.0949 µM) was < 3.16 nM and the IC50 (second compound 0.3 µM) was < 3.16 nM. It also gave a viability, T/C [1] of 76.9%, a viability, T/C [2] of 63.9% and a viability, T/C [3] of 77.4%. It also gave a viability, T/C [4] of 44.5%, a viability, T/C [5] of 20.1% and a viability, T/C [6] of 8.96%. For the same molecule, the viability, T/C [7] was 59.5%, the viability, T/C [8] was 51.5% and the viability, T/C [9] was 48.8%. The viability, T/C [10] was 24.4%, the viability, T/C [11] was 14.3% and the viability, T/C [12] was 10.2%. For the same molecule, the viability, T/C [13] was 39.2%, the viability, T/C [14] was 41.6% and the viability, T/C [15] was 28.4%. The viability, T/C [16] was 20.9%, the viability, T/C [17] was 11.1% and the viability, T/C [18] was 8.95%. It also gave a viability, T/C [19] of 37%, a viability, T/C [20] of 30.9% and a viability, T/C [21] of 28.4%. The viability, T/C [22] was 18.1%, the viability, T/C [23] was 9.5% and the viability, T/C [24] was 9.54%. For the same molecule, the viability, T/C [25] was 34%, the viability, T/C [26] was 32.4% and the viability, T/C [27] was 26.2%. It also gave a viability, T/C [28] of 16.2%, a viability, T/C [29] of 11% and a viability, T/C [30] of 9%. The viability, T/C [31] was 34%, the viability, T/C [32] was 28.9% and the viability, T/C [33] was 25.3%. The viability, T/C [34] was 16.5%, the viability, T/C [35] was 10.1% and the viability, T/C [36] was 9.52%.

`CC(Nc1ccc2c(c1)OCCn1cc(N3C(=O)OCC3C(F)F)nc1-2)C(N)=O` (stereo unspecified) + CCn1c(-c2cccnc2C(C)OC)c2c3cc(ccc31)N1CCOC(CC(NC(=O)C(C(C)C)N(C)C(=O)C3(F)CCN(C(=O)C#CC(C)(C)N(C)C)CC3)C(=O)N3CCCC(N3)C(=O)OCC(C)(C)C2)C1 was tested, and the IC50 (second compound 0.000949 µM) was > 10000 nM, the IC50 (second compound 0.003 µM) was 829 nM and the IC50 (second compound 0.00949 µM) was < 31.6 nM. The IC50 (second compound 0.03 µM) was < 31.6 nM, the IC50 (second compound 0.0949 µM) was < 31.6 nM and the IC50 (second compound 0.3 µM) was < 31.6 nM. It also gave a viability, T/C [3] of 77.4%, a viability, T/C [4] of 70.5% and a viability, T/C [5] of 72.1%. For the same molecule, the viability, T/C [6] was 60.8%, the viability, T/C (second compound 0.000949 µM, first compound 3.16 µM) was 71.5% and the viability, T/C (second compound 0.000949 µM, first compound 10 µM) was 51.3%. The viability, T/C [9] was 57.7%, the viability, T/C [10] was 60.8% and the viability, T/C [11] was 51.5%. The viability, T/C [12] was 45.2%, the viability, T/C (second compound 0.003 µM, first compound 3.16 µM) was 48.9% and the viability, T/C (second compound 0.003 µM, first compound 10 µM) was 34.7%. The viability, T/C [15] was 46.6%, the viability, T/C [16] was 34.3% and the viability, T/C [17] was 35.8%. The viability, T/C [18] was 26.9%, the viability, T/C (second compound 0.00949 µM, first compound 3.16 µM) was 37.2% and the viability, T/C (second compound 0.00949 µM, first compound 10 µM) was 23%. The viability, T/C [21] was 37.9%, the viability, T/C [22] was 38.6% and the viability, T/C [23] was 32.4%. It also gave a viability, T/C [24] of 25%, a viability, T/C (second compound 0.03 µM, first compound 3.16 µM) of 27.3% and a viability, T/C (second compound 0.03 µM, first compound 10 µM) of 21.8%. The viability, T/C [27] was 34.4%, the viability, T/C [28] was 29.4% and the viability, T/C [29] was 29.9%. The viability, T/C [30] was 24.2%, the viability, T/C (second compound 0.0949 µM, first compound 3.16 µM) was 24% and the viability, T/C (second compound 0.0949 µM, first compound 10 µM) was 19.4%. It also gave a viability, T/C [33] of 34.6%, a viability, T/C [34] of 27% and a viability, T/C [35] of 31.1%. The viability, T/C [36] was 23.6%, the viability, T/C (second compound 0.3 µM, first compound 3.16 µM) was 27.5% and the viability, T/C (second compound 0.3 µM, first compound 10 µM) was 18.9%.

In the case of `O=C(c1ccc(F)c(F)c1Nc1ccc(I)cc1F)N1CC(O)([C@@H]2CCCCN2)C1` + CCn1c(-c2cccnc2C(C)OC)c2c3cc(ccc31)N1CCOC(CC(NC(=O)C(C(C)C)N(C)C(=O)C3(F)CCN(C(=O)C#CC(C)(C)N(C)C)CC3)C(=O)N3CCCC(N3)C(=O)OCC(C)(C)C2)C1, the IC50 (second compound 0.000949 µM) is reported as 64.7 nM, the IC50 (second compound 0.003 µM) is reported as 9.15 nM and the IC50 (second compound 0.00949 µM) is reported as < 3.16 nM. For the same molecule, the IC50 (second compound 0.03 µM) was < 3.16 nM, the IC50 (second compound 0.0949 µM) was < 3.16 nM and the IC50 (second compound 0.3 µM) was < 3.16 nM. It also gave a viability, T/C [1] of 76.5%, a viability, T/C [2] of 53.9% and a viability, T/C [3] of 63.3%. The viability, T/C [4] was 42.2%, the viability, T/C [5] was 6.87% and the viability, T/C [6] was 2.59%. For the same molecule, the viability, T/C [7] was 57.1%, the viability, T/C [8] was 44.8% and the viability, T/C [9] was 40.7%. The viability, T/C [10] was 18%, the viability, T/C [11] was 6.5% and the viability, T/C [12] was 2.42%. The viability, T/C [13] was 41.7%, the viability, T/C [14] was 32% and the viability, T/C [15] was 22%. For the same molecule, the viability, T/C [16] was 14.2%, the viability, T/C [17] was 5.98% and the viability, T/C [18] was 2.66%. For the same molecule, the viability, T/C [19] was 27.4%, the viability, T/C [20] was 33.5% and the viability, T/C [21] was 25.5%. It also gave a viability, T/C [22] of 11%, a viability, T/C [23] of 6.18% and a viability, T/C [24] of 2.44%. The viability, T/C [25] was 28.3%, the viability, T/C [26] was 24.3% and the viability, T/C [27] was 19.7%. For the same molecule, the viability, T/C [28] was 10.6%, the viability, T/C [29] was 5.39% and the viability, T/C [30] was 2.34%. The viability, T/C [31] was 28.5%, the viability, T/C [32] was 26.5% and the viability, T/C [33] was 21.9%. For the same molecule, the viability, T/C [34] was 10.1%, the viability, T/C [35] was 4.51% and the viability, T/C [36] was 2.36%.
